Among the data in patent US6680335B2, “Methods of modulating protein tyrosine kinase function with substituted indolinone compounds” (Sugen, Inc., priority 1998, dated 2004) are inhibition and IC50 values, retold here.

One assay has as its target T1, FLK-1 receptor (Mus musculus, UniProt P35918).
T1 construct: expressed in transfected cells; host or cells: NIH3T3 C7#3 cells
The assay is described as follows: ELISA assay measuring the kinase activity of the FLK-1 receptor in cells engineered to express FLK-1. The assay is classed as cell-based. Conditions: FLK-1 expressing NIH3T3 C7#3 cells, VEGF stimulated; for inhibition at 100 µM: compound at 100 μM. The method, then:
An ELISA assay was conducted to measure the kinase activity of the FLK-1 receptor and more specifically, the inhibition or activation of TK activity on the FLK-1 receptor. Specifically, the following assay was conducted to measure kinase activity of the FLK-1 receptor in cells genetically engineered to express FLK-1.
(11) NIH3T3 C7#3 Cells (FLK-1 expressing cells);
The following protocol was used for conducting the assay:
1. Coat Corning 96-well elisa plates with 1.0 μg per well Cappel Anti-rabbit IgG antibody in 0.1 M Na2CO3 pH 9.6. Bring final volume to 150 μL per well. Coat plates overnight at 4° C. Plates can be kept up to two weeks when stored at 4° C.
2. Grow cells in Growth media (DMEM, supplemental with 2.0 mM L-Glutamine, 10% FBS) in suitable culture dishes until confluent at 37° C., 5% CO2.
3. Harvest cells by trypsinization and seed in Corning 25850 polystyrene 96-well roundbottom cell plates, 25.000 cells/well in 200 μL of growth media.
4. Grow cells at least one day at 37° C., 5% CO2.
5. Wash cells with D-PBS 1×.
6. Add 200 μL/well of starvation media (DMEM, 2.0 mM 1-Glutamine, 0.1% FBS). Incubate overnight at 37° C., 5% CO2.
7. Dilute Compounds 1:20 in polypropylene 96 well plates using starvation media. Dilute dimethylsulfoxide 1:20 for use in control wells.
8. Remove starvation media from 96 well cell culture plates and add 162 μL of fresh starvation media to each well.
9. Add 18 μL of 1:20 diluted Compound dilution (from step 7) to each well plus the 1:20 dimethylsulfoxide dilution to the control wells (+/−VEGF), for a final dilution of 1:200 after cell stimulation. Final dimethylsulfoxide is 0.5%. Incubate the plate at 37° C., 5% CO2 for two hours.
10. Remove unbound antibody from ELISA plates by inverting plate to remove liquid. Wash 3 times with TBSW+0.5% ethanolamine, pH 7.0. Pat the plate on a paper towel to remove excess liquid and bubbles.
11. Block plates with TBSW+0.5% Ethanolamine, pH 7.0, 150 μL per well. Incubate plate thirty minutes while shaking on a microliter plate shaker.
12. Wash plate 3 times as described in step 10.
13. […] Bring final volume to 150 μL/well with TBSW+0.5% ethanolamine pH 7.0. Incubate plate for thirty minutes while shaking.
14. Add 180 μL starvation medium to the cells and stimulate cells with 20 μL/well 10.0 mM sodium ortho vanadate and 500 ng/mL VEGF (resulting in a final concentration of 1.0 mM sodium ortho vanadate and 50 ng/mL VEGF per well) for eight minutes at 37° C., 5% CO2. Negative control wells receive only starvation medium.
15. After eight minutes, media should be removed from the cells and washed one time with 200 μL/well PBS.
16. Lyse cells in 150 μL/well HNTG while shaking at room temperature for five minutes. HNTG formulation includes sodium ortho vanadate, sodium pyro phosphate and EDTA.
17. Wash ELISA plate three times as described in step 10.
18. Transfer cell lysates from the cell plate to ELISA plate and incubate while shaking for two hours. To transfer cell lysate pipette up and down while scrapping the wells.
19. Wash plate three times as described in step 10.
20. Incubate ELISA plate with 0.02 μg/well UB40 in TBSW+05% ethanolamine. Bring final volume to 150 μL/well. Incubate while shaking for 30 minutes.
21. Wash plate three times as described in step 10.
22. Incubate ELISA plate with 1:10,000 diluted EIA grade goat anti-mouse IgG conjugated horseradish peroxidase in TBSW+0.5% ethanolamine, pH 7.0. Bring final volume to 150 μL/well. Incubate while shaking for thirty minutes.
23. Wash plate as described in step 10.
24. Add 100 μL of ABTS/H2O2 solution to well. Incubate ten minutes while shaking.
25. Add 100 μL of 0.2 M HCl for 0.1 M HCl final to stop the color development reaction. Shake 1 minute at room temperature. Remove bubbles with slow stream of air and read the ELISA plate in an ELISA plate reader at 410 nm.
(§1) The IC50 values were measured for several of the compounds of the invention.
In general terms: ELISA stands for enzyme-linked immunosorbent assay.

A further assay addresses T2, src protein kinase (Gallus gallus, UniProt P00523).
T2 construct: made in house; host or cells: Schizosaccharomyces pombe strain SP200, pRSP expression plasmids
The assay is described as follows: Assay measuring SRC protein kinase activity (phosphorylation of a biotinylated peptide). The assay is classed as biochemical. Conditions: src from transformed yeast lysate, 5 μM ATP; compound at 100 μM. On the procedure:
This assay is used to determine src protein kinase activity measuring phosphorylation of a biotinylated peptide as the readout.
a. Yeast transformed with src.
b. Cell lysates: Yeast cells expressing src are pelleted, washed once with water, re-pelleted and stored at −80° C. until use.
(§2) c. N-terminus biotinylated […] is prepared by standard procedures well known to those skilled in the art.
(§3) h. […] S. Pombe strain SP200 (h-s leul.32 ura4 ade21O) was grown as described and transformations were pRSP expression plasmids were done by the lithium acetate method (Superti-Furga, supra). Cells were grown in the presence of 1 μM thiamine to repress expression from the nmtl promoter or in the absence of thiamine to induce expression.
a. Preparation of src coated ELISA plate.
1. Coat ELISA plate with 0.5 μg/well anti-src mab in 100 μL of pH 9.6 sodium carbonate buffer at 4° C. overnight.
(§4) 2. Wash wells once with PBS.
(§5) 3. Block plate with 0.15 mL 5% milk in PBS for 30 min. at room temperature.
(§6) 4. Wash plate 5× with PBS.
5. Add 10 μg/well of src transformed yeast lysates diluted in Lysis Buffer (0.1 mL total volume per well). (Amount of lysate may vary between hatches.) Shake plate for 20 minutes at room temperature.
(§7) b. Preparation of phosphotyrosine antibody-coated ELISA plate.
(§8) 1. 4G10 plate: coat 0.5 μg/well 4G10 in 100 μL PBS overnight at 4° C. and block with 150 μL of 5% milk in PBS for 30 minutes at room temperature.
(§9) c. Kinase assay procedure.
(§10) 1. Remove unbound proteins from steps 1-7, above, and wash plates 5× with PBS.
2. Add 0.08 mL Kinase Reaction Mixture per well (containing 10 μL of 10×Kinase Buffer and 10 μM (final concentration) biotin-[…] per well diluted in water.
(§11) 3. Add 10 μL of compound diluted in water containing 10% DMSO and pre-incubate for 15 minutes at room temperature.
(§12) 4. Start kinase reaction by adding 10 μL/well of 0.05 mM ATP in water (5 μM ATP final).
(§13) 5. Shake ELISA plate for 15 min. at room temperature.
(§14) 6. Stop kinase reaction by adding 10 μL of 0.5 M EDTA per well.
(§15) 7. Transfer 90 μL supernatant to a blocked 4G10 coated ELISA plate from section B, above.
(§16) 8. Incubate for 30 min. while shaking at room temperature.
(§17) 9. Wash plate 5× with TBST.
(§18) 10. Incubate with Vectastain ELITE ABC reagent (100 μL/well) for 30 min. at room temperature.
(§19) 11. Wash the wells 5× with TBST.
(§20) 12. Develop with Turbo TMB.
as §1

For another assay, the target named is T3, pyk-2 protein kinase (Homo sapiens, UniProt Q14289).
T3 construct: made in house; host or cells: Schizosaccharomyces pombe strain SP200, pRSP expression plasmids
T3 sequence (Q14289 whole entry): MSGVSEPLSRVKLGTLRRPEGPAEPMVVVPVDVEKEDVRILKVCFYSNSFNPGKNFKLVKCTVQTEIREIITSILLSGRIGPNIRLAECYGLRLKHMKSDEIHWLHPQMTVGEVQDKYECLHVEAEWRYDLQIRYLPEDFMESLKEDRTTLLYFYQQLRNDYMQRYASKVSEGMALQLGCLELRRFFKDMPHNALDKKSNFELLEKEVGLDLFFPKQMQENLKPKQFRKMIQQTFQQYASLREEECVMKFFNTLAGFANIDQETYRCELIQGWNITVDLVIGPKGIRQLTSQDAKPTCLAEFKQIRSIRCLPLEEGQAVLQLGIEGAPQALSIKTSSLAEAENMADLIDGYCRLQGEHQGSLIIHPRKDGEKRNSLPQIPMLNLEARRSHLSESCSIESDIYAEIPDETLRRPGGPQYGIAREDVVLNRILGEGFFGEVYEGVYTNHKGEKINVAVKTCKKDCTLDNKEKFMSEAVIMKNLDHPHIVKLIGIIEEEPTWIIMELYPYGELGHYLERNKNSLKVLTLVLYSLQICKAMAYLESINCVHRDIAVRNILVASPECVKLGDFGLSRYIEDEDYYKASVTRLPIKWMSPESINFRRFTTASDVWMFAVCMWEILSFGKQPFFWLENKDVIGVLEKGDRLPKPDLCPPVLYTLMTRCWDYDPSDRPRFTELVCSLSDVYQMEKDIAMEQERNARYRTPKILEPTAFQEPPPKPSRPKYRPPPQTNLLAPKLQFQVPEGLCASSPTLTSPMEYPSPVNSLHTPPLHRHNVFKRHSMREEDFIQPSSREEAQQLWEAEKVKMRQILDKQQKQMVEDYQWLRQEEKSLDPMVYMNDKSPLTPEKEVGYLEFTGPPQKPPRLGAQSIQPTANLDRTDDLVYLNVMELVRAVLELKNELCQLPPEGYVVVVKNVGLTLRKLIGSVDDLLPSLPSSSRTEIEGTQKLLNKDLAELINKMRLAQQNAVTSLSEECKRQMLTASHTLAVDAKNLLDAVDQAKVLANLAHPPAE
The assay is described as follows: Assay measuring PYK-2 protein kinase activity (phosphorylation of a biotinylated peptide). Format: biochemical. Conditions: pyk-2 from transformed yeast lysate, 5 μM ATP; compound at 100 μM. The method, then: This assay is used to determine pyk-2 protein kinase activity measuring phosphorylation of a biotinylated peptide as the readout.
a. Yeast transformed with pyk-2.
b. Cell lysates: Yeast cells expressing pyk-2 are pelleted, washed once with water, re-pelleted and stored at −80° C. until use.
as §2, §3
a. Preparation of pyk-2 coated ELISA plate.
1. Coat ELISA plate with 0.5 μg/well anti-pyk-2 mab in 100 μL of pH 9.6 sodium carbonate buffer at 4° C. overnight.
as §4, §5, §6
5. Add 10 μg/well of pyk-2 transformed yeast lysates diluted in Lysis Buffer (0.1 mL total volume per well). (Amount of lysate may vary between hatches.) Shake plate for 20 minutes at room temperature.
as §7, §8, §9, §10
2. Add 0.08 mL Kinase Reaction Mixture per well (containing […] of 10×Kinase Buffer and 10 pM (final concentration) biotin-[…] per well diluted in water.
as §11, §12, §13, §14, §15, §16, §17, §18, §19, §20, §1

T1 sequence (P35918 20-1345): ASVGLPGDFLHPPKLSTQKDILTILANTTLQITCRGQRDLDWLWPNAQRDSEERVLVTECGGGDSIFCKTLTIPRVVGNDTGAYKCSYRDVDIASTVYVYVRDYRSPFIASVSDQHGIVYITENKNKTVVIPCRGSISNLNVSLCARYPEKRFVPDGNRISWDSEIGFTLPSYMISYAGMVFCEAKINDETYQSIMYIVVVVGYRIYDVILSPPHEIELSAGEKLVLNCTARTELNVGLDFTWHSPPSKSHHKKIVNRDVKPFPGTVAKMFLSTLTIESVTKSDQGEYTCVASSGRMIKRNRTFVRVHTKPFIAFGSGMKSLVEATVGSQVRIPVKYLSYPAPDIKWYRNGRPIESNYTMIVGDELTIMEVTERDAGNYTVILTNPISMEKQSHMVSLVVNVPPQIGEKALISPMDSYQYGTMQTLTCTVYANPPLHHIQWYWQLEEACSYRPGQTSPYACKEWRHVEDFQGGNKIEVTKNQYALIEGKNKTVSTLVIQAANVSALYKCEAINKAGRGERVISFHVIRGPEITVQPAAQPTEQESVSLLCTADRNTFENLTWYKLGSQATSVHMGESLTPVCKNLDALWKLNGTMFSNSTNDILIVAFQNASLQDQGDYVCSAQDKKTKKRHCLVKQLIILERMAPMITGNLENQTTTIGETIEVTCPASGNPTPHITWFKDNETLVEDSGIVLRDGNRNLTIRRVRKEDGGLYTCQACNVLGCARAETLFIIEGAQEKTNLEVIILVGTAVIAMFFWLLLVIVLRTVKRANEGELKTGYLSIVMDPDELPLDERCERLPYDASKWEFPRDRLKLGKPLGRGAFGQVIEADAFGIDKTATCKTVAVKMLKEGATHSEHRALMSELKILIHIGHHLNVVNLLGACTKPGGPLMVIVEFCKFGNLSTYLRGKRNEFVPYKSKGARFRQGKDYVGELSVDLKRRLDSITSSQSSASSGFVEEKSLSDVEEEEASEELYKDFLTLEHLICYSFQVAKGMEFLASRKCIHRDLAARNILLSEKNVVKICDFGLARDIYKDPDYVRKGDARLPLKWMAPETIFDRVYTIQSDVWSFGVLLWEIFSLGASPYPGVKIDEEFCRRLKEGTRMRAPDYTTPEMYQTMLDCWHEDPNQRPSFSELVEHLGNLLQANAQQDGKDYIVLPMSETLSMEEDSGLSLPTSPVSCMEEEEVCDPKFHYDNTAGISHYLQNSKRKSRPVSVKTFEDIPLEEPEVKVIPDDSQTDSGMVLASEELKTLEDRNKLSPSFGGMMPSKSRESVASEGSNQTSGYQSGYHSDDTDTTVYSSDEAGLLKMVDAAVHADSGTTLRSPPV

By inhibition is commonly meant the relative decrease from the control value, in per cent. With `Cc1c(C=C2C(=O)Nc3ccc(S(=O)(=O)N(C)C)cc32)[nH]c2ccccc12` (mixture of isomers) [IN-004, 3-(3-Methyl-1H-indol-2-ylmethylene)-2-oxo-2,3-dihydro-1H-indole-5-sulfonic acid dimethylamide], the inhibition at 100 µM at FLK-1 receptor is 7%; on src protein kinase it was -4.6%; against pyk-2 protein kinase, 44.4%.

Consider `CNS(=O)(=O)c1ccc2c(c1)C(=Cc1[nH]c3ccccc3c1C)C(=O)N2` [IN-003, 3-(3-Methyl-1H-indol-2-ylmethylene)-2-oxo-2,3-dihydro-1H-indole-5-sulfonic acid methylamide], for which the inhibition at 100 µM came to 11% at FLK-1 receptor and 67.5% at pyk-2 protein kinase.

With `O=C1Nc2ccc(Br)cc2C1=Cc1cc2ccccc2[nH]1` [IN-014, 5-Bromo-3-(1H-indol-2-ylmethylene)-1,3-dihydro-indol-2-one], the inhibition at 100 µM on FLK-1 receptor is 10%; against src protein kinase, -2.4%; at pyk-2 protein kinase it was -14%.

As to `Cc1cccc2c1C(=Cc1cc3ccccc3[nH]1)C(=O)N2` [IN-015, 3-(1H-indol-2-ylmethylene)-4-methyl-1,3-dihydro-indol-2-one], the inhibition at 100 µM against FLK-1 receptor was determined as 26%; at src protein kinase it was 16%; on pyk-2 protein kinase, 3.9%.

In general, IC50 refers to the concentration that inhibits the measured activity by half. Regarding `O=C1Nc2ccc(/N=C/c3cc4ccccc4[nH]3)cc2/C1=C/c1cc2ccccc2[nH]1` [IN-020, 3-(1H-indol-2-ylmethylene)-5-[(1H-indol-2-ylmethylene)-amino]-1,3-dihydro-indol-2-one], the IC50 at FLK-1 receptor (cells without % or + sign) is greater than 100 µM. For the same compound, the inhibition at 100 µM was determined as 7.62% on src protein kinase and 64.3% on pyk-2 protein kinase.
